Patent US20140256690A1, “CONTRACEPTIVE METHOD” (AGILE THERAPEUTICS, INC., priority 2013, published 2014)

Test: Saturation solubilities of enhancers in PSAs
Format: physicochemical
[1] = in Duro-Tak 87-4098 (polyacrylate PSA)

| Saturation Solubilities [1] [mg/g] | Saturation Solubilities (in PIB PSA) [mg/g] | Compound |
| --- | --- | --- |
| 1000 | 785 | CCCCCCCCCCCCOC(=O)C(C)O (stereo not shown) [Lauryl Lactate, lauryl lactate] |
| 8 | 0.01 | C[S+](C)[O-] [DMSO, dimethyl sulfoxide] |
